pIC50: −log10 of the molar value. Where a SMILES comes first, the peptide text is derived from it.

The target of this test is ERAP2 (Homo sapiens, UniProt Q6P179). As to the kind of experiment: biochemical.
Chain of ERAP2 (Q6P179 whole entry): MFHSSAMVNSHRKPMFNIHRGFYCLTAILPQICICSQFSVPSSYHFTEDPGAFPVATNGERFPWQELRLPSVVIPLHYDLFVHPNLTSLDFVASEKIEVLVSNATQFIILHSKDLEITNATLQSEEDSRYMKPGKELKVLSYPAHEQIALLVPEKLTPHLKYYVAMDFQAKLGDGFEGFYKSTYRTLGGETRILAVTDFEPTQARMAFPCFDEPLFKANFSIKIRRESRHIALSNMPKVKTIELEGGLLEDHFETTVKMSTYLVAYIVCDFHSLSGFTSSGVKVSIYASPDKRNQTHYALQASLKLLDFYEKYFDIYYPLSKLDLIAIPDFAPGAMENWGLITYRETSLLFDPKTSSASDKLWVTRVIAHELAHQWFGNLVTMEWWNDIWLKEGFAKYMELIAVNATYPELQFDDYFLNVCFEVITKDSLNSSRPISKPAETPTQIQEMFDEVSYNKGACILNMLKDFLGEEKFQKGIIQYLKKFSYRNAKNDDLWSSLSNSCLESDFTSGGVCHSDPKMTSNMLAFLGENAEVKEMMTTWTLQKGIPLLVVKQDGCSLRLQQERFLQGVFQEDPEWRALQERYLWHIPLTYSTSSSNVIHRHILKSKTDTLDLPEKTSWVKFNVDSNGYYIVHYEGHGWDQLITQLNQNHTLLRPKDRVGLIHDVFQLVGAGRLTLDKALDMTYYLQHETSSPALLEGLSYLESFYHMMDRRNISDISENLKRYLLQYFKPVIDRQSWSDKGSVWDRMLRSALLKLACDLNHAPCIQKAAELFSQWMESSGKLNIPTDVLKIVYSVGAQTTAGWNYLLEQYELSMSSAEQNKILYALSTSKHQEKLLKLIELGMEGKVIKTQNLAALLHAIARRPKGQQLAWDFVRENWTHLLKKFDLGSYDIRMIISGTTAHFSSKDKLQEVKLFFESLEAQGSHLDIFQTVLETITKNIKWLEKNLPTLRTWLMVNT
Procedure: Substrate hydrolysis was assessed by measuring the fluorescence of free AMC at 14-s intervals, at 380nm and 460 nm excitation and emission wavelengths, respectively, in a Fluostar Optima Multiwave Plate Reader (BMG Labtec, Ortenberg, Germany).
Take `CC[C@H](C)[C@H](NC(=O)[C@H](CCC(N)=O)NC(=O)[C@H](Cc1ccccc1)NC(=O)[C@@H](NC(=O)[C@H](CC(=O)O)NC(=O)CNC(=O)[C@H](Cc1ccc(O)cc1)NC(=O)[C@H](CCCNC(=N)N)NC(=O)[C@H](CCCNC(=N)N)NC(=O)[C@H](C)NC(=O)[C@@H](N)CC(C)C)C(C)C)C(=O)O` (H-LARRYGDVFQI-OH): the pIC50 is 4.73.

`CC(C)C[C@H](NC(=O)[C@H](CCCCN)NC(=O)[C@H](CC(=O)O)NC(=O)CNC(=O)[C@H](Cc1ccccc1)NC(=O)[C@H](CCCNC(=N)N)NC(=O)[C@H](CCCNC(=N)N)NC(=O)[C@H](CC(C)C)NC(=O)[C@@H](N)CCC(N)=O)C(=O)N[C@@H](CC(N)=O)C(=O)N[C@@H](Cc1ccccc1)C(=O)O` (H-QLRRFGDKLNF-OH) showed a pIC50 of 4.88.

For the compound `CC(C)C[C@H](NC(=O)[C@H](Cc1ccc(O)cc1)NC(=O)[C@@H]1CCCN1C(=O)[C@H](CO)NC(=O)[C@H](CCCCN)NC(=O)CNC(=O)[C@H](Cc1ccc(O)cc1)NC(=O)[C@H](CCCNC(=N)N)NC(=O)[C@H](C)NC(=O)[C@H](CC(C)C)NC(=O)[C@@H](N)CO)C(=O)N[C@@H](Cc1ccc(O)cc1)C(=O)O` (H-SLARYGKSPYLY-OH), the pIC50 was 5.54.

The term pIC50 denotes the IC50 on a negative log10 scale, so that one unit is a factor of ten. Lower therefore signals a high IC50.
